Assay results as given in patent publication US20210253598A1, “ARYL ANNULATED MACROCYCLIC INDOLE DERIVATIVES” (priority 2017, published 2021).
Several values for one entry are separate records, joined by “and”; a condition that tells them apart may be missing. Equal entries are not always repeated. Structures can show the parent of a compound that is named as a salt. Where two headings read alike, the source gives them in different places.

How the values were obtained:
MCL-1 = MCL-1 (Homo sapiens, UniProt Q07820, K194A/K197A/R201A); experiment: Protein-protein interaction assay MCL-1/Noxa BH3 peptide, TR-FRET (MCL-1 assay, Assay 1); format: binding; conditions: MCL-1 Assay [M] (median), MBP-MCL-1 / Noxa BH3 peptide
Summary of the method: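 TR-FRET competition between compounds and a biotin-PEG Noxa BH3 tracer for 1 nM MBP-MCL-1 (residues 173-321). Incubation was 1 h at 22 °C in the dark, then overnight at 4 °C, in 50 mM Tris pH 7 buffer with KF and DTT, after a 10-min compound pre-equilibration. Normalized ratios were fitted with a 4-parameter Hill equation to give IC50.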

SUDHL5 [1] = experiment: Induction of caspase-3/7 activity in SUDHL5 cells (Assay 4); format: cell-based
Summary of the method: (§1)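 Luminescent Caspase-Glo 3/7 read-out in SUDHL5 and SUDHL10 cells after 3 h compound exposure at 37 °C, followed by 1 h reagent incubation.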

SUDHL10 [2] = experiment: Induction of caspase-3/7 activity in SUDHL10 cells (Assay 4); format: cell-based
Summary of the method: as §1

SUDHL5 [3] = experiment: Induction of cytotoxicity in SUDHL5 cells, CellTiter-Glo (Assay 6); format: cell-based; conditions: SUDHL5, 5 hours incubation, median, read-out: Cytotox SUDHL5 [M] (median)
Summary of the method: (§2)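 Luminescent ATP readout (CellTiter-Glo, 15 min at room temperature) quantifies cytotoxicity after a 5 h compound exposure at 37 °C.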

SUDHL10 [4] = experiment: Induction of cytotoxicity in SUDHL10 cells, CellTiter-Glo (Assay 6); format: cell-based; conditions: SUDHL10, 5 hours incubation, median, read-out: Cytotox SUDHL10 [M] (median)
Summary of the method: as §2

SUDHL5 [5] = experiment: Anti-proliferative effect in SUDHL5 cells, CellTiter-Glo (Assay 7); format: cell-based
Summary of the method: (§3)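 72 h CTG viability assay, 37 °C, humidified. Time-zero plate as baseline; IC50 vs day 0 and DMSO controls.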

MV-4-11 = experiment: Anti-proliferative effect in MV-4-11 cells, CellTiter-Glo (Assay 7); format: cell-based; conditions: several values per example
Summary of the method: as §3

AMO-1 = experiment: Anti-proliferative effect in AMO-1 cells, CellTiter-Glo (Assay 7); format: cell-based
Description: Assessment of the Anti-Proliferative Effect of Compounds in Different Cell Lines
The impact of compounds on the proliferation of different cell lines was assessed using the CellTiter-Glo® Luminescent Cell Viability reagent from Promega (G7573).
In parallel, cells were plated in a reference (day 0) plate for time zero determination. Cells were incubated in a humidified incubator at 37° C. overnight.
Rim wells were excluded. The cells were incubated for 72 hours in a humidified incubator at 37° C. The day 0 plate was measured by adding 30 μL/well of CTG solution (CellTiter-Glo® Luminescent Cell Viability reagent, Promega G7573) to time zero wells in the reference plate followed by a 10 minutes incubation and luminescence reading at 0.1 ms. using the PHERAstar FS microplate reader (BMG Labtech).
After 72 hours incubation, the treated plates were measured in the same way as the day 0 plate mentioned above. The Bella DRC Master Sheet was used to calculate IC50s, with CI=day 0 values and C0=DMSO control values.

A2780 = experiment: Anti-proliferative effect in A2780 cells, CellTiter-Glo (Assay 7); format: cell-based; conditions: several values per example
Summary of the method: as §3

[6] = Homo sapiens, SU-DHL-5, 3 h, SUDHL5, 3 hours treatment, Caspase-Glo 3/7, median, read-out: Caspase SUDHL5 [M] (median)
[7] = Homo sapiens, SU-DHL10, 3 h, SUDHL10, 3 hours treatment, Caspase-Glo 3/7, median, read-out: Caspase SUDHL10 [M] (median)
[8] = Homo sapiens, SU-DHL-5, 72 h, SUDHL5, 72 hours incubation, CellTiter-Glo, median, read-out: Antiproli SUDHL5 [M] (median)
[9] = Homo sapiens, MV4-11, 72 h, MV-4-11, 72 hours incubation, CellTiter-Glo, read-out: Antiproli MV-4-11
[10] = Homo sapiens, AMO1, 72 h, AMO-1, 72 hours incubation, CellTiter-Glo; several values per example; read-out: Antiproli AMO-1
[11] = Homo sapiens, A2780, 72 h, A2780, 72 hours incubation, CellTiter-Glo, read-out: Antiproli A2780
[12] = read-out: Caspase SUDHL5 [M] (median), SUDHL5, 3 hours treatment, Caspase-Glo 3/7
[13] = read-out: Caspase SUDHL10 [M] (median), SUDHL10, 3 hours treatment, Caspase-Glo 3/7
[14] = read-out: Antiproli AMO-1; AMO-1, 72 hours incubation, CellTiter-Glo; several values per example
[15] = read-out: Antiproli SUDHL5 [M] (median), SUDHL5, 72 hours incubation, CellTiter-Glo
[16] = read-out: Antiproli MV-4-11, MV-4-11, 72 hours incubation, CellTiter-Glo
[17] = read-out: Antiproli A2780, A2780, 72 hours incubation, CellTiter-Glo
[18] = MV-4-11, 72 hours incubation, CellTiter-Glo, read-out: Antiproli MV-4-11
[19] = AMO-1, 72 hours incubation, CellTiter-Glo; several values per example; read-out: Antiproli AMO-1
[20] = A2780, 72 hours incubation, CellTiter-Glo, read-out: Antiproli A2780

Chain of MCL-1 (Q07820 173-321 K194A/K197A/R201A, looked up): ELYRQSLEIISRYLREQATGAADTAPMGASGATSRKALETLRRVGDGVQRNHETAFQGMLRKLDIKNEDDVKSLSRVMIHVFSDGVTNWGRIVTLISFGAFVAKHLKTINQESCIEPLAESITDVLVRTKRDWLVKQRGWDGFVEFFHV

Compound | IC50 (MCL-1) | EC50 (SUDHL5 [1]; [6]) | EC50 (SUDHL10 [2]; [7]) | IC50 (SUDHL10 [4]; Homo sapiens, SU-DHL10, 5 h) | IC50 (SUDHL5 [5]; [8]) | IC50 (AMO-1; [10]) | IC50 (A2780; [11]) | EC50 (SUDHL5 [1]; [12]) | EC50 (SUDHL10 [2]; [13]) | IC50 (SUDHL5 [3]) | IC50 (SUDHL10 [4]) | IC50 (AMO-1; [14]) | IC50 (SUDHL5 [5]; [15]) | IC50 (MV-4-11; [16]) | further results
CCc1c2c(nn1C)COCc1ccccc1Cn1c(C(=O)O)c(CCCOc3cccc4cc(F)ccc34)c3ccc(Cl)c-2c31 (racemic) [Example 54, (rac)-3-Chloro-4-ethyl-17-{3-[(6-fluoronaphthalen-1-yl)oxy]propyl}-5-methyl-5,7,9,14-tetrahydroindolo[7,1-fg]pyrazolo[3,4-d][2,8]benzoxazacycloundecine-16-carboxylic Acid] | 8.3e-10 M | 8.4e-07 M | 1.8e-06 M | 2.6e-06 M | 1.4e-06 M | 1.77 µM | 6.59e-06 M | – | – | – | – | – | – | – | IC50 (SUDHL5 [3]; Homo sapiens, SU-DHL-5, 5 h): 9.3e-07 M; IC50 (MV-4-11; [9]): 3.83e-06 M
CCc1nn(C)c2c1-c1c(Cl)ccc3c(CCCOc4cccc5cc(F)ccc45)c(C(=O)O)n(c13)Cc1ccccc1COC2 (racemic) [Example 57, (rac)-3-Chloro-4-ethyl-17-{3-[(6-fluoronaphthalen-1-yl)oxy]propyl}-6-methyl-6,7,9,14-tetrahydro-indolo[7,1-fg]pyrazolo[3,4-d][2,8]benzoxazacycloundecine-16-carboxylic Acid] | 2.7e-09 M | 1.5e-06 M | 4.3e-06 M | 4.6e-06 M | 2.4e-06 M | 2.65 µM | 7.02e-06 M | – | – | – | – | – | – | – | IC50 (MV-4-11; [9]): 2.19e-06 M
Cc1c2c(nn1C)COCc1ccccc1Cn1c(C(=O)O)c(CCCOc3cccc4cc(F)ccc34)c3ccc(F)c-2c31 (racemic) [Example 64, (rac)-15-Fluoro-1-(3-((6-fluoronaphthalen-1-yl)oxy)propyl)-13,14-dimethyl-4,9,11,13-tetrahydrobenzo[3,4]pyrazolo[4′,3′:9,10][1,6]oxaazacycloundecino[8,7,6-hi]indole-2-carboxylic Acid] | 1.5e-09 M | 1.7e-06 M | 6e-06 M | 3.2e-06 M | 1.5e-06 M | 7.46 µM | 1.71e-05 M | – | – | – | – | – | – | – | IC50 (SUDHL5 [3]; Homo sapiens, SU-DHL-5, 5 h): 2.2e-06 M
Cc1c2c(nn1C)CN(S(=O)(=O)CCN1CCOCC1)Cc1ccccc1Cn1c(C(=O)O)c(CCCOc3cccc4ccccc34)c3cccc-2c31 (single isomer, unassigned; enantiomer 1) [Example 31, (+)-4,5-Dimethyl-8-[2-(morpholin-4-yl)ethanesulfonyl]-17-{3-[(naphthalen-1-yl)oxy]propyl}-7,8,9,14-tetrahydro-5H-indolo[1,7-bc]pyrazolo[4,3-e][2,8]benzodiazacycloundecine-16-carboxylic acid-N-ethylethanamine Salt (Enantiomer 1)] | 1.3e-08 M | – | – | – | – | – | – | 5.2e-06 M | 9.7e-06 M | 5.3e-06 M | > 7.8e-05 M | 5.93 µM | – | – | IC50 (SUDHL5 [5]; Homo sapiens, SU-DHL-5, 72 h, read-out: Antiproli SUDHL5 [M] (median), SUDHL5, 72 hours incubation, CellTiter-Glo): 4.8e-06 M; IC50 (MV-4-11; Homo sapiens, MV4-11, 72 h, read-out: Antiproli MV-4-11 [M], MV-4-11, 72 hours incubation, CellTiter-Glo): 5.49e-06 M; IC50 (A2780; Homo sapiens, A2780, 72 h, read-out: Antiproli A2780 [M], A2780, 72 hours incubation, CellTiter-Glo): 6.72e-06 M
Cc1c2c(nn1C)CN(S(=O)(=O)CCN1CCOCC1)Cc1ccccc1Cn1c(C(=O)O)c(CCCOc3cccc4ccccc34)c3cccc-2c31 (single isomer, unassigned; enantiomer 2) [Example 32, (−)-4,5-Dimethyl-8-[2-(morpholin-4-yl)ethanesulfonyl]-17-{3-[(naphthalen-1-yl)oxy]propyl}-7,8,9,14-tetrahydro-5H-indolo[1,7-bc]pyrazolo[4,3-e][2,8]benzodiazacycloundecine-16-carboxylic acid-N-ethylethanamine Salt (Enantiomer 2)] | 1.8e-07 M | – | – | – | – | – | – | > 3.3e-05 M | > 3.3e-05 M | > 3.3e-05 M | > 3.3e-05 M | 13.5 µM | 4.5e-06 M | 8.42e-06 M | IC50 (A2780; [17]): 1.08e-05 M
Cc1c2c(nn1C)COCc1ccccc1Cn1c(C(=O)O)c(CCCOc3cccc4cc(F)ccc34)c3ccc(F)c-2c31 (single isomer, unassigned; enantiomer 2) [Example 66, (+)-3-Fluoro-17-{3-[(6-fluoronaphthalen-1-yl)oxy]propyl}-4,5-dimethyl-5,7,9,14-tetrahydroindolo[7,1-fg]pyrazolo[3,4-d][2,8]benzoxazacycloundecine-16-carboxylic acid-N-ethylethanamine Salt (Enantiomer 2)] | 6.2e-09 M | – | – | – | – | – | – | 3.3e-06 M | 1.2e-05 M | 4.1e-06 M | 8.6e-06 M | 7.13 µM and 7.07 µM | 3.6e-06 M | – | IC50 (A2780; [17]): > 3.3e-05 M
Cc1c2c(nn1C)COCc1ccccc1Cn1c(C(=O)O)c(CCCOc3cccc4ccccc34)c3ccc(F)c-2c31 (single isomer, unassigned; enantiomer 2) [Example 69, (+)-3-Fluoro-4,5-dimethyl-17-{3-[(naphthalen-1-yl)oxy]propyl}-5,7,9,14-tetrahydroindolo[7,1-fg]pyrazolo[3,4-d][2,8]benzoxazacycloundecine-16-carboxylic acid-N-ethylethanamine Salt (Enantiomer 2)] | 2.1e-08 M | – | – | – | – | – | – | 1.3e-05 M | > 3.3e-05 M | 1.4e-05 M | > 3.3e-05 M | 26 µM | 1.2e-05 M | 1.51e-05 M | –
CCc1c2c(nn1C)COCc1ccccc1Cn1c(C(=O)O)c(CCCOc3cccc4cc(F)ccc34)c3ccc(F)c-2c31 (single isomer, unassigned; enantiomer 2) [Example 75, (+)-4-Ethyl-3-fluoro-17-{3-[(6-fluoronaphthalen-1-yl)oxy]propyl}-5-methyl-5,7,9,14-tetrahydro-indolo[7,1-fg]pyrazolo[3,4-d][2,8]benzoxazacycloundecine-16-carboxylic acid-N-ethylethanamine Salt (Enantiomer 2)] | 3e-09 M | – | – | – | – | – | – | 4.4e-06 M | 1.5e-05 M | 5.2e-06 M | 1e-05 M | 12.5 µM | 5.8e-06 M | 1.64e-05 M | –
Cc1c2c(nn1C)COCc1cccnc1Cn1c(C(=O)O)c(CCCOc3cccc4ccccc34)c3cccc-2c31 [Example 05] | – | – | – | – | – | – | – | – | – | – | – | – | – | – | IC50 (MV-4-11; [18]): 5.48e-06 M; IC50 (AMO-1; [19]): 8.78 µM; IC50 (A2780; [20]): 6.65e-06 M
Cc1c2c(nn1C)COCc1cccnc1Cn1c(C(=O)O)c(CCCOc3cccc4ccccc34)c3cccc-2c31 [Example 06] | – | – | – | – | – | – | – | – | – | – | – | – | – | – | IC50 (MV-4-11; [18]): 5.38e-06 M; IC50 (AMO-1; [19]): 19.9 µM; IC50 (A2780; [20]): 8.66e-06 M
